This is an account of results in ChEMBL document CHEMBL2384977, “Synthesis and biological evaluation of novel styryl benzimidazole derivatives as probes for imaging of neurofibrillary tangles in Alzheimer's disease” (Bioorg Med Chem, 2013).

Settings in all cases: in vivo
Data set [1] has as its system Brain. Briefly: Ratio of drug level in mouse brain measured at 2.5 mins to drug level in mouse brain measured at 20 mins. It is filed as ADME, tissue-based.
The test system of data set [2] is Brain. The data set is described as follows: Ratio of drug level in ICR mouse brain at 2.6 to 3.3 MBq, iv measured at 2 mins to drug level in ICR mouse brain at 2.6 to 3.3 MBq, iv measured at 60 mins. The format is ADME, organism-based.
Data set [3] has as its system Brain. The data set is described as follows: Ratio of drug level in ICR mouse brain at 0.68 to 1.32 MBq, iv measured at 2 mins to drug level in ICR mouse brain at 0.68 to 1.32 MBq, iv measured at 60 mins. The format is ADME, organism-based.

In the case of `[18F]CCC1CCN(c2ccn3c(n2)nc2ccccc23)CC1`, the Ratio with Brain [1] came out at 2.92.

With `[11CH3]Nc1ccc(-c2ccc3ccccc3n2)cc1`, the Ratio in the data set with Brain [2] came to 5.38.

With `Nc1ccc(-c2ccc3cc(OCC[18F])ccc3n2)cc1`, in the data set with Brain [3], the Ratio was 1.83.
